According to ChEMBL document CHEMBL5303304, “EUbOPEN Chemogenomics Library - IncuCyte” (2023):

Columns and labels:
Assay type in all cases: toxicity, cell-based
Fibroblast = assay: Incucyte cell viability with human fibroblast; conditions: 10 µM, compound concentration 10 uM
U2OS = assay: Incucyte cell viability with U2OS; conditions: human, 10 µM, compound concentration 10 uM
HEK-293T = assay: Incucyte cell viability with HEK293T; conditions: human, 10 µM, compound concentration 10 uM
Note: unitless GR value; below 1 slowed growth and below 0 cell loss.

Row | SMILES | Growth Rate (Fibroblast; 6 h, replicate number 1) | Growth Rate (Fibroblast; 12 h, replicate number 1) | Growth Rate (Fibroblast; 12 h, replicate number 2) | Growth Rate (Fibroblast; 18 h, replicate number 1) | Growth Rate (Fibroblast; 24 h, replicate number 1) | Growth Rate (U2OS; 6 h, replicate number 1) | Growth Rate (U2OS; 12 h, replicate number 1) | Growth Rate (HEK-293T; 0 h, replicate number 2) | Growth Rate (HEK-293T; 12 h, replicate number 2) | Growth Rate (HEK-293T; 18 h, replicate number 2) | Growth Rate (Fibroblast; 18 h, replicate number 2) | Growth Rate (Fibroblast; 24 h, replicate number 2) | Growth Rate (U2OS; 0 h, replicate number 1) | Growth Rate (U2OS; 18 h, replicate number 2) | Growth Rate (HEK-293T; 6 h, replicate number 1) | Growth Rate (HEK-293T; 6 h, replicate number 2) | Growth Rate (HEK-293T; 12 h, replicate number 1) | Growth Rate (HEK-293T; 18 h, replicate number 1) | Growth Rate (HEK-293T; 24 h, replicate number 2) | Growth Rate (Fibroblast; 6 h, replicate number 2) | other results
1 | CCCc1c(OCCCOc2ccc(OCC(=O)O)cc2)ccc(C(C)=O)c1O | 0.58 | 0.74 | 0.87 | 0.6 | 0.94 | 0.97 | 0.84 | -0.76 | 0.94 | 0.97 |  |  |  |  |  |  |  |  |  |  | Growth Rate (Fibroblast; 0 h, replicate number 2): -0.08
2 | CN[C@@H]1CC[C@@H](c2ccc(Cl)c(Cl)c2)c2ccccc21.Cl | -0.46 | -0.24 | -0.45 | -0.26 | -0.06 | 0.8 | 0.75 | -1 | -0.18 | -0.04 | -0.33 | -0.2 | -0.9 | 0.41 | 0 | -0.43 | 0.01 | 0.17 | 0.07 |  | Growth Rate (U2OS; 0 h, replicate number 2): 0.34; Growth Rate (U2OS; 6 h, replicate number 2): 0.35; Growth Rate (U2OS; 12 h, replicate number 2): 0.04; Growth Rate (U2OS; 18 h, replicate number 1): 0.81; Growth Rate (U2OS; 24 h, replicate number 1): 0.85; Growth Rate (U2OS; 24 h, replicate number 2): 0.45; Growth Rate (HEK-293T; 24 h, replicate number 1): 0.2
3 | OC(c1ccc(-c2ccc(CN3CCN(Cc4ccncc4)CC3)cc2)c(F)c1)(C(F)(F)F)C(F)(F)F | -0.31 | 0.07 | -0.38 | 0.24 | 0.39 | 0.85 | 0.84 | -0.93 | 0.08 | 0.23 | -0.18 | -0.02 | 0.44 | 0.78 | -0.1 | 0.22 | -0.03 | 0.02 | 0.29 | -0.55 | Growth Rate (Fibroblast; 0 h, replicate number 1): 0.65; Growth Rate (U2OS; 6 h, replicate number 2): 0.88; Growth Rate (U2OS; 18 h, replicate number 1): 0.93; Growth Rate (U2OS; 24 h, replicate number 2): 0.71; Growth Rate (HEK-293T; 24 h, replicate number 1): 0.09
4 | CN[C@@H](C)C(=O)N[C@H](C(=O)N1CCC[C@H]1C(=O)N[C@H]1c2ccccc2C[C@H]1OCC#CC#CCO[C@@H]1Cc2ccccc2[C@@H]1NC(=O)[C@@H]1CCCN1C(=O)[C@@H](NC(=O)[C@H](C)NC)C1CCCCC1)C1CCCCC1 |  | 0.87 |  | 0.75 | 0.63 | 0.89 |  | -0.94 | -0.22 | 0.01 | 0.57 | 0.43 | 0.76 | 0.86 | 0.13 | 0.46 | -0.41 | -0.17 | 0.02 |  | Growth Rate (U2OS; 6 h, replicate number 2): 0.83; Growth Rate (U2OS; 12 h, replicate number 2): 0.86; Growth Rate (U2OS; 18 h, replicate number 1): 0.87; Growth Rate (U2OS; 24 h, replicate number 1): 0.89; Growth Rate (HEK-293T; 24 h, replicate number 1): -0.12
5 | COc1cccc(Cn2cc(C(=O)Nc3ccc(C)c(S(=O)(=O)N4CCOCC4)c3)c(-c3ccc(C)cc3)n2)c1 | 0.43 | 0.7 |  | 0.89 |  |  | 0.96 | -0.05 |  |  |  |  |  |  | 0.76 |  |  | 0.99 |  | 0.77 | Growth Rate (Fibroblast; 0 h, replicate number 2): 0.55; Growth Rate (HEK-293T; 24 h, replicate number 1): 0.96
6 | COc1cc(N(C)c2ccnc3ccc(C(F)(F)F)cc23)cc(OC)c1OC | -0.52 |  | 0.94 |  |  |  | 0.9 | -1 | 0.01 | 0.27 | 0.91 |  |  | 0.92 |  | -0.32 |  |  | 0.48 | 0.41 | Growth Rate (Fibroblast; 0 h, replicate number 1): 0.97; Growth Rate (U2OS; 0 h, replicate number 2): 0.66; Growth Rate (U2OS; 6 h, replicate number 2): 0.7; Growth Rate (U2OS; 12 h, replicate number 2): 0.88; Growth Rate (U2OS; 24 h, replicate number 1): 1; Growth Rate (U2OS; 24 h, replicate number 2): 0.84
7 | CCOC(=O)C1Cc2ccccc2CN1C(=O)c1ccc(SC)s1 (stereo not drawn) |  | 0.66 | 0.1 | 0.58 | 0.86 | 0.96 |  | -0.82 | 0.49 | 0.5 | 0.63 | 0.67 |  | 0.98 | 0.05 | 0.28 | 0.12 | 0.47 | 0.5 | 0.06 | Growth Rate (U2OS; 6 h, replicate number 2): 0.87; Growth Rate (U2OS; 24 h, replicate number 2): 0.88; Growth Rate (HEK-293T; 24 h, replicate number 1): 0.41
8 | Cc1ccc(NS(=O)(=O)c2ccc3c(c2)C2C=CCC2C(c2ccc(C(=O)O)cc2)N3)cc1C (stereo not drawn) | -0.66 | 0.86 | 0.36 | 0.83 | 0.65 | 0.79 | 0.82 | -0.87 |  |  |  | 0.72 | 0.88 | 0.99 |  |  | 0.89 | 0.79 |  | 0.01 | Growth Rate (Fibroblast; 0 h, replicate number 2): 0.82; Growth Rate (U2OS; 18 h, replicate number 1): 0.87; Growth Rate (U2OS; 24 h, replicate number 1): 0.93; Growth Rate (U2OS; 24 h, replicate number 2): 0.91
9 | CCC(=O)Nc1cc(Nc2cc(NC3CC3)n3ncc(C#N)c3n2)ccc1C | 0.76 | 0.46 | 0.67 | 0.33 | 0.48 | 0.24 | 0.12 | -0.72 | 0.59 | 0.83 | 0.61 | 0.85 | -1 | 0.54 | 0.87 | 0.94 | 0.79 | 0.79 | 0.83 | 0.41 | Growth Rate (U2OS; 6 h, replicate number 2): 0.61; Growth Rate (U2OS; 12 h, replicate number 2): 0.52; Growth Rate (U2OS; 18 h, replicate number 1): 0.39; Growth Rate (U2OS; 24 h, replicate number 1): 0.44; Growth Rate (U2OS; 24 h, replicate number 2): 0.53; Growth Rate (HEK-293T; 24 h, replicate number 1): 0.81
10 | CC1CN(CC(=O)N2CC(C)(C)c3nc(CO)c(Cc4ccc(F)cc4)cc32)C(CN2CCOCC2C)CN1 (stereo not drawn) | 0.63 |  | 0.94 | 0.98 |  |  |  | -0.63 | 0.96 |  | 0.94 | 0.9 | -0.23 |  | 0.63 | 0.88 |  |  | 0.89 | 0.4 | 
11 | CCC(=O)O[C@@H](OP(=O)(CCCCc1ccccc1)CC(=O)N1C[C@H](C2CCCCC2)C[C@H]1C(=O)[O-])C(C)C.[Na+] (stereo partly drawn) |  | 0.72 |  |  |  | 0.56 | 0.78 | -1 | 0.04 | 0.29 |  |  | 0.02 |  | 0.41 | -0.23 | 0.66 | 0.77 | 0.49 | 0.94 | Growth Rate (Fibroblast; 0 h, replicate number 2): -0.2; Growth Rate (U2OS; 18 h, replicate number 1): 0.78; Growth Rate (U2OS; 24 h, replicate number 1): 0.77; Growth Rate (HEK-293T; 24 h, replicate number 1): 0.84
